The data set relates to rodent lifetime carcinogenesis bioassay, tumor incidence TD50. The data set can be described thus: chronic cancer bioassays in animals – CPDB, compiled studies (AID 1745844).

The source made the active and inactive calls. How the calls were made is not given here.

Broadly, the TD50 is the dose at which the toxic effect under study appears in half of the subjects.

In the case of `O[C@@H]([C@H](O)[C@H](O)CBr)[C@H](O)CBr`, the TD50 runs as follows: (mouse, strain Swiss, females, i.p., site: adrenal gland, lesion: cortical adenoma, dosed 26 weeks, study length 78 weeks) 136 mg/kg/day; (mouse, strain Swiss, females, i.p., site: all sites, lesion: lymphatic leukemia, dosed 26 weeks, study length 78 weeks) 89.8 mg/kg/day; (mouse, strain Swiss, females, i.p., site: all sites, lesion: lymphosarcoma, dosed 26 weeks, study length 78 weeks) 38.4 mg/kg/day; (mouse, strain Swiss, females, i.p., site: any site (literature study), lesion: benign tumor, dosed 26 weeks, study length 78 weeks) 130 mg/kg/day; (mouse, strain Swiss, females, i.p., site: any site (literature study), lesion: malignant tumor, dosed 26 weeks, study length 78 weeks) 11.2 mg/kg/day; (mouse, strain Swiss, females, i.p., site: any site (literature study), lesion: several types, types named in the paper, dosed 26 weeks, study length 78 weeks) 7.67 mg/kg/day. Moreover, the TD50 by setting is: (mouse, strain Swiss, females, i.p., site: lung, lesion: several types, types named in the paper, dosed 26 weeks, study length 78 weeks) 21.4 mg/kg/day; (mouse, strain Swiss, females, i.p., site: subcutaneous tissue, lesion: carcinoma, dosed 26 weeks, study length 78 weeks) 66 mg/kg/day; (mouse, strain Swiss, males, i.p., site: any site (literature study), lesion: benign tumor, dosed 26 weeks, study length 78 weeks) 92.8 mg/kg/day; (mouse, strain Swiss, males, i.p., site: any site (literature study), lesion: malignant tumor, dosed 26 weeks, study length 78 weeks) 8.53 mg/kg/day; (mouse, strain Swiss, males, i.p., site: any site (literature study), lesion: several types, types named in the paper, dosed 26 weeks, study length 78 weeks) 6.03 mg/kg/day; (mouse, strain Swiss, males, i.p., site: liver, lesion: several types, types named in the paper, dosed 26 weeks, study length 78 weeks) 65.7 mg/kg/day. Moreover, the TD50 by setting is: (mouse, strain Swiss, males, i.p., site: lung, lesion: several types, types named in the paper, dosed 26 weeks, study length 78 weeks) 11.4 mg/kg/day; (rat, strain Charles River CD (Sprague-Dawley), females, i.p., site: any site (literature study), lesion: malignant tumor, dosed 26 weeks, study length 78 weeks) 11.5 mg/kg/day; (rat, strain Charles River CD (Sprague-Dawley), females, i.p., site: any site (literature study), lesion: several types, types named in the paper, dosed 26 weeks, study length 78 weeks) 12.5 mg/kg/day; (rat, strain Charles River CD (Sprague-Dawley), females, i.p., site: lung, lesion: carcinoma, dosed 26 weeks, study length 78 weeks) 84.6 mg/kg/day; (rat, strain Charles River CD (Sprague-Dawley), females, i.p., site: mammary gland, lesion: adenocarcinoma, dosed 26 weeks, study length 78 weeks) 24.9 mg/kg/day; (rat, strain Charles River CD (Sprague-Dawley), females, i.p., site: peritoneum, lesion: sarcoma, dosed 26 weeks, study length 78 weeks) 79.2 mg/kg/day. Moreover, the TD50 was 16.6 mg/kg/day (rat, strain Charles River CD (Sprague-Dawley), males, i.p., site: any site (literature study), lesion: benign tumor, dosed 26 weeks, study length 78 weeks); 7.95 mg/kg/day (rat, strain Charles River CD (Sprague-Dawley), males, i.p., site: any site (literature study), lesion: several types, types named in the paper, dosed 26 weeks, study length 78 weeks); 255 mg/kg/day (rat, strain Charles River CD (Sprague-Dawley), males, i.p., site: mammary gland, lesion: fibroadenoma, dosed 26 weeks, study length 78 weeks); 30.9 mg/kg/day (rat, strain Charles River CD (Sprague-Dawley), males, i.p., site: peritoneum, lesion: sarcoma, dosed 26 weeks, study length 78 weeks); 103 mg/kg/day (rat, strain Charles River CD (Sprague-Dawley), males, i.p., site: skin, lesion: several types, types named in the paper, dosed 26 weeks, study length 78 weeks).
On to `COc1ccc(C)cc1N`, for which the TD50 (mouse, strain B6C3F1, females, in feed, site: any site (literature study), lesion: several types, types named in the paper, dosed 97 weeks, study length 97 weeks) was found to be 75 mg/kg/day; the TD50 (mouse, strain B6C3F1, females, in feed, site: liver + urinary bladder, lesion: hepatocellular adenoma + hepatocellular carcinoma + carcinoma, NOS + neoplasm, NOS, malignant + squamous-cell carc, dosed 97 weeks, study length 97 weeks) turned out to be 69 mg/kg/day; the TD50 (mouse, strain B6C3F1, females, in feed, site: liver, lesion: hepatocellular adenoma + hepatocellular carcinoma + neoplastic nodule, dosed 97 weeks, study length 97 weeks) turned out to be 301 mg/kg/day; the TD50 (mouse, strain B6C3F1, females, in feed, site: liver, lesion: hepatocellular adenoma + hepatocellular carcinoma, dosed 97 weeks, study length 97 weeks) is 301 mg/kg/day; the TD50 (mouse, strain B6C3F1, females, in feed, site: liver, lesion: hepatocellular carcinoma, dosed 97 weeks, study length 97 weeks) was 315 mg/kg/day; the TD50 (mouse, strain B6C3F1, females, in feed, site: lung, lesion: alveolar/bronchiolar adenoma + alveolar/bronchiolar carcinoma, dosed 97 weeks, study length 97 weeks) came to 3810 mg/kg/day. Moreover, the TD50 runs as follows: (mouse, strain B6C3F1, females, in feed, site: urinary bladder, lesion: carcinoma, NOS + neoplasm, NOS, malignant + squamous-cell carcinoma + transitional-cell carcinoma, dosed 97 weeks, study length 97 weeks) 69 mg/kg/day; (mouse, strain B6C3F1, females, in feed, site: urinary bladder, lesion: carcinoma, NOS + squamous-cell carcinoma + transitional-cell carcinoma, dosed 97 weeks, study length 97 weeks) 70.1 mg/kg/day; (mouse, strain B6C3F1, males, in feed, site: any site (literature study), lesion: several types, types named in the paper, dosed 97 weeks, study length 97 weeks) 46.4 mg/kg/day; (mouse, strain B6C3F1, males, in feed, site: liver, lesion: hepatocellular adenoma + hepatocellular carcinoma + neoplastic nodule, dosed 97 weeks, study length 97 weeks) 255 mg/kg/day; (mouse, strain B6C3F1, males, in feed, site: lung, lesion: alveolar/bronchiolar adenoma + alveolar/bronchiolar carcinoma, dosed 97 weeks, study length 97 weeks) 1170 mg/kg/day; (mouse, strain B6C3F1, males, in feed, site: urinary bladder, lesion: squamous-cell carcinoma + transitional-cell carcinoma, dosed 97 weeks, study length 97 weeks) 44.7 mg/kg/day. Besides, the TD50 is 1490 mg/kg/day (rat, strain Fischer 344, females, in feed, site: adrenal gland, lesion: cortical adenoma, dosed 104 weeks, study length 105 weeks); 93.8 mg/kg/day (rat, strain Fischer 344, females, in feed, site: any site (literature study), lesion: several types, types named in the paper, dosed 104 weeks, study length 105 weeks); 2180 mg/kg/day (rat, strain Fischer 344, females, in feed, site: liver, lesion: hepatocellular adenoma + hepatocellular carcinoma + neoplastic nodule, dosed 104 weeks, study length 105 weeks); 110 mg/kg/day (rat, strain Fischer 344, females, in feed, site: nasal cavity + urinary bladder, lesion: olfactory neuroblastoma + neoplasm, NOS + papillary carcinoma + squamous-cell carcinoma + transitional-cell carcinoma, dosed 104 weeks, study length 105 weeks); 1190 mg/kg/day (rat, strain Fischer 344, females, in feed, site: nasal cavity, lesion: olfactory neuroblastoma, dosed 104 weeks, study length 105 weeks); 110 mg/kg/day (rat, strain Fischer 344, females, in feed, site: urinary bladder, lesion: neoplasm, NOS + papillary carcinoma + squamous-cell carcinoma + transitional-cell carcinoma, dosed 104 weeks, study length 105 weeks). Further, the TD50 reads like this: (rat, strain Fischer 344, females, in feed, site: uterus, lesion: endometrial stromal polyp, dosed 104 weeks, study length 105 weeks) 913 mg/kg/day; (rat, strain Fischer 344, males, in feed, site: any site (literature study), lesion: several types, types named in the paper, dosed 104 weeks, study length 105 weeks) 98 mg/kg/day; (rat, strain Fischer 344, males, in feed, site: brain + brain stem, lesion: glioma, NOS, dosed 104 weeks, study length 105 weeks) 3510 mg/kg/day; (rat, strain Fischer 344, males, in feed, site: liver + nasal cavity + nasopharynx + urinary bladder, lesion: hepatocellular carcinoma + mixed hepato/cholangio carcinoma + neoplastic nodule + adenoma, NOS + carcinoma, NOS + neuroblastoma + ne, dosed 104 weeks, study length 105 weeks) 76.3 mg/kg/day; (rat, strain Fischer 344, males, in feed, site: liver, lesion: hepatocellular adenoma + hepatocellular carcinoma + neoplastic nodule, dosed 104 weeks, study length 105 weeks) 443 mg/kg/day; (rat, strain Fischer 344, males, in feed, site: liver, lesion: hepatocellular carcinoma + mixed hepato/cholangio carcinoma + neoplastic nodule, dosed 104 weeks, study length 105 weeks) 406 mg/kg/day. The TD50 (rat, strain Fischer 344, males, in feed, site: nasal cavity + nasopharynx, lesion: carcinoma, NOS + neoplasm, NOS, malignant + adenocarcinoma, NOS, dosed 104 weeks, study length 105 weeks) is 4620 mg/kg/day; the TD50 (rat, strain Fischer 344, males, in feed, site: nasal cavity, lesion: adenoma, NOS + carcinoma, NOS + neuroblastoma + neoplasm, NOS, malignant + olfactory neuroblastoma, dosed 104 weeks, study length 105 weeks) was 397 mg/kg/day; the TD50 (rat, strain Fischer 344, males, in feed, site: nasal cavity, lesion: neuroblastoma + olfactory neuroblastoma, dosed 104 weeks, study length 105 weeks) was 450 mg/kg/day; the TD50 (rat, strain Fischer 344, males, in feed, site: testis, lesion: interstitial-cell tumor, dosed 104 weeks, study length 105 weeks) turned out to be 165 mg/kg/day; the TD50 (rat, strain Fischer 344, males, in feed, site: urinary bladder, lesion: papillary carcinoma + squamous-cell carcinoma + transitional-cell carcinoma + transitional-cell papilloma + undifferentiated car, dosed 104 weeks, study length 105 weeks) was 88.4 mg/kg/day.
On to `Nc1nnc(-c2ccc([N+](=O)[O-])o2)o1`, for which the TD50 was 2.74 mg/kg/day (rat, strain Sprague-Dawley, females, in feed, site: any site (literature study), lesion: several types, types named in the paper, dosed 46 weeks, study length 66 weeks); 37 mg/kg/day (rat, strain Sprague-Dawley, females, in feed, site: forestomach, lesion: squamous-cell papilloma, dosed 46 weeks, study length 66 weeks); 45.2 mg/kg/day (rat, strain Sprague-Dawley, females, in feed, site: kidney/pelvis, lesion: transitional-cell carcinoma, dosed 46 weeks, study length 66 weeks); 242 mg/kg/day (rat, strain Sprague-Dawley, females, in feed, site: lung, lesion: alveolar-cell carcinoma, dosed 46 weeks, study length 66 weeks); 7.98 mg/kg/day (rat, strain Sprague-Dawley, females, in feed, site: mammary gland, lesion: adenocarcinoma, dosed 46 weeks, study length 66 weeks); 3.67 mg/kg/day (rat, strain Sprague-Dawley, females, in feed, site: mammary gland, lesion: several types, types named in the paper, dosed 46 weeks, study length 66 weeks).
Consider `CC(C)CCCCCOC(=O)COc1ccc(Cl)cc1Cl`, for which the carcinogen call (mouse, strain B6AKF1, females, oral dosing, site: any site (literature study), lesion: several types, types named in the paper, dosed 76 weeks, study length 76 weeks) is “negative (inactive)”; the carcinogen call (mouse, strain B6AKF1, females, oral dosing, site: liver, lesion: hepatoma, dosed 76 weeks, study length 76 weeks) was “negative (inactive)”; the carcinogen call (mouse, strain B6AKF1, females, oral dosing, site: lung, lesion: adenoma, dosed 76 weeks, study length 76 weeks) is “negative (inactive)”; the carcinogen call (mouse, strain B6AKF1, males, oral dosing, site: any site (literature study), lesion: several types, types named in the paper, dosed 76 weeks, study length 76 weeks) is “negative (inactive)”; the carcinogen call (mouse, strain B6AKF1, males, oral dosing, site: liver, lesion: hepatoma, dosed 76 weeks, study length 76 weeks) is “negative (inactive)”; the carcinogen call (mouse, strain B6AKF1, males, oral dosing, site: lung, lesion: several types, types named in the paper, dosed 76 weeks, study length 76 weeks) was “negative (inactive)”. Moreover, the carcinogen call (mouse, strain B6C3F1, females, oral dosing, site: liver, lesion: hepatoma, dosed 76 weeks, study length 76 weeks) is “negative (inactive)” and the carcinogen call (mouse, strain B6C3F1, males, oral dosing, site: lung, lesion: several types, types named in the paper, dosed 76 weeks, study length 76 weeks) is “negative (inactive)”. Also, the TD50 reads like this: (mouse, strain B6C3F1, females, oral dosing, site: any site (literature study), lesion: several types, types named in the paper, dosed 76 weeks, study length 76 weeks) 24.6 mg/kg/day (inactive); (mouse, strain B6C3F1, females, oral dosing, site: lung, lesion: adenoma, dosed 76 weeks, study length 76 weeks) 34 mg/kg/day (inactive); (mouse, strain B6C3F1, males, oral dosing, site: any site (literature study), lesion: several types, types named in the paper, dosed 76 weeks, study length 76 weeks) 17.7 mg/kg/day (inactive); (mouse, strain B6C3F1, males, oral dosing, site: liver, lesion: hepatoma, dosed 76 weeks, study length 76 weeks) 31.7 mg/kg/day (inactive).
Under “rat, strain Fischer 344, males, in feed, site: testis, lesion: interstitial-cell tumor, dosed 89 weeks, study length 89 weeks”, `S=C=NCCCc1ccccc1` gave a TD50 of 4.34 mg/kg/day.
For `O=CNNc1nc(-c2ccco2)cs1`, for the setting “rat, strain Sprague-Dawley, females, in feed, site: any site (literature study), lesion: several types, types named in the paper, dosed 46 weeks, study length 64 weeks”, the carcinogen call was “negative (inactive)”.

These data come from PubChem BioAssay AID1745844 (Carcinogenic Potency Database (CPDB), 2022).
